Test results taken from patent US20050180972A1, “Anti-CD20 antibody-drug conjugates for the treatment of cancer and immune disorders” (priority 2002, published 2005).
Read-outs that look alike come from different tables or passages of the source. Square brackets hold non-standard residues; d marks the D form. Peptide text beside a SMILES is read from it. * marks the point of attachment. Dolaproine = CO[C@@H]([C@@H]1CCCN1)[C@@H](C)C(=O)O; Dil = CC[C@H](C)[C@H](NC)[C@@H](CC(=O)O)OC; X1 = C[C@@H](N*)[C@@H](O)c1ccccc1; NMeV = CN[C@H](C(=O)O)C(C)C

Experiments:
Ramos cells [1] = assay: Confocal microscopy for mAb/ADC trafficking; conditions: 5 ug/ml, 37 C, 1, 4 and 24 h
Text: Microscopy for mAb/ ADC trafficking. […] At the designated times cells were harvested by centrifugation, fixed and permeabilized by paraformaldehyde/saponin (Cytofix/Cytoperm™ Buffer, BD PharMingen, San Diego, Calif.). After washing with the Perm/Wash™ buffer (BD PharMingen) and blocking with goat IgG, cells were stained with a goat anti-human IgG Fc_specific FITC conjugate (Jackson ImmunoResearch Laboratories, Inc., West Grove, Pa.). The localization of fluorescence signals was then visualized using a Deltavision confocal fluorescence microscope equipped with digital analysis software.
Internalization of the mAb-drug conjugate.

Karpas 299 cells = assay: Alamar Blue cytotoxicity assay, CD20-negative Karpas 299 cells; format: cell-based, human
Protocol: (§1) Cytotoxicity assays. Cytotoxicity was measured by Alamar Blue (Biosource International) dye reduction assay according to manufacturers directions (Nakayama et al. Journal Of Immunological Methods 1997; 204:205-208). Briefly, a 40% solution (w/v) of Alamar Blue was freshly prepared in complete media just prior to adding to cultures. The Alamar Blue solution was added at cell densities of 10^5 cells/ml for the Ramos, Raji, and Karpas cell lines, and at a cell density of 4×10^5 cells/ml for the Daudi cell line. After 92 h following drug exposure. Alamar Blue solution was added to cells to constitute 10% culture volume. The cells were incubated for 4 h and dye reduction measured on a Fusion HT fluorescent plate reader (Packard Instruments, Meriden, Conn.).
(§2) Cell sensitivity to unconjugated drugs. The cells were initially evaluated for relative sensitivity to doxorubicin and MMAE. Cells were exposed to drugs for 2 h, washed, replated in fresh media and incubated for an additional 92 h. Four h. prior to harvest, cells were incubated with Alamar Blue, a reducible dye that provides readout of cell viability (Nakayarna et al., 1997).
(§3) Sensitivity of cells to ADCs. […] As described above, 4 h prior to harvest, cells were incubated with Alamar Blue and cell viability assessed.

Raji cells = assay: Alamar Blue cytotoxicity assay, Raji cells; format: cell-based, human
Protocol: as §1, §2, §3

Daudi cells = assay: Alamar Blue cytotoxicity assay, Daudi cells; format: cell-based, human
Protocol: as §1, §2, §3

Ramos cells [2] = assay: Alamar Blue cytotoxicity assay, Ramos cells; format: cell-based, human
Protocol: as §1, §2, §3

Ramos cells [3] = assay: Induction of apoptosis, Annexin V-FITC / propidium iodide staining; conditions: 5 μg/ml, after 24 hr of incubation
Protocol: Selective induction of Apoptosis. […] At the designated times cells were removed from cultures and stained with Annexin V-FITC and propidium iodide (PI) as described in Materials and Methods. The range of apoptotic cells (Annexin V^+/PI^−) and of dead cells (Annexin V^+/PI^+) was determined by flow cytometric analysis of each population.
Induction of Apoptosis. […] At designated time points cells were removed from cultures and the degrees of apoptosis and cell death were determined by Annexin V binding to the cell surface and loss of propidium iodide (PI) inclusion respectively (FIG. 5).

Ramos NHL cells = assay: Subcutaneous Ramos NHL xenograft model; format: in vivo, SCID mice; conditions: intraperitoneal, every 4 days for 3 injections, 3 mg/kg
Protocol: For the localized non Hodgkin's lymphoma model, 2×10^6 Ramos NHL cells were implanted into the right flank of SCID mice. […] Treatment consisted of intraperitoneal injections of mAb or ADC every 4 days for 3 injections. Tumor size was determined using the formula (L×W^2)/2.
SCID mice were implanted with 5×10^6 Ramos cells into the flank and the tumor size in each group of 5 animals was allowed to progress to an average size of 100 mm^3 before therapy with mAb or ADCs was initiated. Treatment consisted of intraperitoneal injections of mAb or ADC every 4 days for 3 injections using 1 and 3 mg/kg/injection.

CD20-positive cells = assay: Cytotoxicity of ADCs, summary statement; format: cell-based, human; conditions: following brief exposure
Protocol: as §1, §3

[4] = test system: Daudi, Ramos, Raji and Karpas 299 cells; assay: Relative potency of unconjugated drugs versus doxorubicin across cell lines; format: cell-based, human
Protocol: as §1, §2

[5] = ADC, 2 h binding, washed, additional 92 h, Karpas
[6] = ADC, 2 h binding, washed, additional 92 h, Raji
[7] = ADC, 2 h binding, washed, additional 92 h, Daudi

Rituxan-vcDox [reference compound] was tested, and the “cellular localization (equatorial section)” value (Ramos cells [1]) was “remained primarily on the surface”, the IC50 (Karpas 299 cells; [5]) was >50 µg/mL and the IC50 (Raji cells; [6]) was >50 µg/mL. For the same compound, the “toxicity at the highest levels tested” value (Raji cells; Raji cells, up to 50 ug/ml) was “did not affect significant toxicity”, the IC50 (Daudi cells; [7]) was >50 µg/mL and the IC50 (Ramos cells [2]; ADC, 2 h binding, washed, additional 92 h, Ramos) was >50 µg/mL.
`COc1cccc2c1C(=O)c1c(O)c3c(c(O)c1C2=O)C[C@@](O)(C(=O)CO)C[C@@H]3O[C@H]1C[C@H](N)[C@H](O)[C@H](C)O1` [Doxorubicin, doxorubicin, reference compound] was tested, and the IC50 (Karpas 299 cells; Homo sapiens, KARPAS-299, unconjugated drug, 2 h exposure, washed, additional 92 h, Karpas (CD20-), read-out: IC50) was 650 nM, the IC50 (Raji cells; Homo sapiens, unconjugated drug, 2 h exposure, washed, additional 92 h, Raji (CD20+), read-out: IC50) was 200 nM and the IC50 (Daudi cells; Homo sapiens, unconjugated drug, 2 h exposure, washed, additional 92 h, Daudi (CD20+), read-out: IC50) was 140 nM. The IC50 (Ramos cells [2]; Homo sapiens, unconjugated drug, 2 h exposure, washed, additional 92 h, Ramos (CD20+), read-out: IC50) was 225 nM.
“Rituximab-valine-citrulline-monomethyl Auristatin E [Rituxan-vcMMAE]” was tested, and the “percentage of apoptotic cells” value (Ramos cells [3]) was 19%, the “percentage of dead cells” value (Ramos cells [3]) was 60% and the “cellular localization (equatorial section)” value (Ramos cells [1]) was “localized to the cell interior within 4 h”. For the same compound, the IC50 (Karpas 299 cells; [5]) was >50 µg/mL, the “delay in tumor growth” value (Ramos NHL cells) was “significant delay in tumor growth” and the IC50 (Raji cells; ADC on Raji cells (FIG. 4A)) was 1.4 µg/mL. It also gave an IC50 (Raji cells; [6]) of 1.5 µg/mL, an IC50 (Daudi cells; [7]) of 2 µg/mL and an IC50 (Ramos cells [2]; ADC on Ramos cells (FIG. 4B)) of 0.045 µg/mL. For the same compound, the IC50 (CD20-positive cells) was 0.05 µg/mL.
For `CC[C@H](C)[C@@H]([C@@H](CC(=O)N1CCC[C@H]1[C@H](OC)[C@@H](C)C(=O)N[C@H](C)[C@@H](O)c1ccccc1)OC)N(C)C(=O)[C@@H](NC(=O)[C@@H](NC)C(C)C)C(C)C` [MMAE, monomethyl Auristatin E] (H-[NMeV]V[Dil][Dolaproine]-X1), the IC50 (Karpas 299 cells; Homo sapiens, KARPAS-299) was 3 nM, the “Activity Ratio MMAE/Doxorubicin” value (Karpas 299 cells; Karpas (CD20-)) was 216.7 and the IC50 (Raji cells; Homo sapiens, Raji) was 3.5 nM. For the same compound, the “Activity Ratio MMAE/Doxorubicin” value (Raji cells; Raji (CD20+)) was 57.1, the “Activity Ratio MMAE/Doxorubicin” value (Daudi cells; Daudi (CD20+)) was 215.4 and the IC50 (Daudi cells; Homo sapiens, Daudi) was 0.65 nM. The IC50 (Ramos cells [2]; Homo sapiens, Ramos) was 1 nM and the “Activity Ratio MMAE/Doxorubicin” value (Ramos cells [2]; Ramos (CD20+)) was 225.0.
In the case of `CC[C@H](C)[C@@H]([C@@H](CC(=O)N1CCC[C@H]1[C@H](OC)[C@@H](C)C(=O)N[C@H](C)[C@@H](O)c1ccccc1)OC)N(C)C(=O)[C@@H](NC(=O)[C@H](C(C)C)N(C)C)C(C)C` [Auristatin E], the “times more potent than doxorubicin” value [4] is reported as > 50 times.
